Results on 16 compounds are retold here after ChEMBL document CHEMBL2086331, “Novel triazolopyridylbenzamides as potent and selective p38α inhibitors” (Bioorg Med Chem Lett, 2012).

The subject of this assay is Blood. Kind of assay: Inhibition of LPS-induced TNFalpha production in human whole blood. Type of assay: functional, tissue-based.

One may read the IC50 as the midpoint of a concentration-inhibition curve. Lower therefore signals greater potency.

The compound `Cc1ccc(C(=O)NC2CC2)cc1-c1ccn2c(-c3ccncc3Cl)nnc2c1` gave a 50% inhibitory concentration (IC50) of 0.305 µM.

`Cc1c(F)cc(C(=O)NC2CC2)cc1-c1ccn2c(-c3ccccc3Cl)nnc2c1`: inhibition was half-maximal at 0.0072 µM (IC50).

Turning to `Cc1c(F)cc(C(=O)NC2CC2)cc1-c1ccn2c(C3CCC3)nnc2c1`, it took 0.55 µM to reach half-maximal inhibition (IC50).

Consider `Cc1ccc(C(=O)NC2CC2)cc1-c1ccn2c(-c3ccccc3Cl)nnc2c1`, for which the half-inhibitory concentration (IC50) stood at 0.02 µM.

`COC(C)c1nnc2cc(-c3cc(C(=O)NC4CC4)ccc3C)ccn12` (stereo unspecified) came in with a half-maximal inhibitory concentration (IC50) of 1.06 µM.

Turning to `Cc1c(F)cc(C(=O)NC2CC2)cc1-c1ccn2c(C(N)=O)nnc2c1`, the IC50 amounted to 1.84 µM. Against the preceding compound, the IC50 is about 1.7-fold higher.

`Cc1c(F)cc(C(=O)NC2CC2)cc1-c1c(F)cn2c(-c3ccncc3Cl)nnc2c1F` showed an IC50 of over 5 µM.

`Cc1ccc(C(=O)NC2CC2)cc1-c1ccn2c(C3CCC3)nnc2c1` came in with an IC50 of 0.67 µM.

Consider `Cc1ccc(C(=O)NC2CC2)cc1-c1c(F)cn2c(C(C)(C)C)nnc2c1F`, for which the IC50 turned out to be 0.516 µM. The IC50 values of the last two compounds are within 1.5-fold of each other.

`Cc1c(F)cc(C(=O)NC2CC2)cc1-c1c(F)cn2c(C(C)(C)N)nnc2c1F` had an IC50 of 0.822 µM. This IC50 is about 1.6-fold higher than that of the compound before.

`Cc1c(F)cc(C(=O)NC2CC2)cc1-c1ccn2c(C(C)(C)N)nnc2c1` yielded a half-inhibitory concentration (IC50) of 0.177 µM.

`Cc1ccc(C(=O)NC2CC2)cc1-c1ccn2c(C3(C)CC3)nnc2c1` registered an IC50 of 0.232 µM.

Turning to `COC(C)(C)c1nnc2cc(-c3cc(C(=O)NC4CC4)cc(F)c3C)ccn12`, the midpoint of inhibition, the IC50, lay at 0.278 µM.

Take `COC(C)c1nnc2cc(-c3cc(C(=O)NC4CC4)cc(F)c3C)ccn12` (stereo unspecified): half-maximal inhibition (IC50) was put at 0.257 µM.

The compound `Cc1ccc(C(=O)NC2CC2)cc1-c1ccn2c(C(C)C)nnc2c1` gave an IC50 of 0.042 µM.

With `CC(C)(C)c1nnc2ccc(Sc3ccc(F)cc3F)cn12`, the midpoint of inhibition, the IC50, lay at 0.143 µM.
